Experimental data: patent publication US20030096020A1, “Novel herbal composition for the management of bronchial asthma and a process of manufacturing the same” (priority 2001, published 2003)

Test system: mast cells
Test: Active anaphylaxis method to evaluate mast cell count
Type: in vivo, rat
Details: sensitized rats

C[C@]12C=CC(=O)C=C1CC[C@@H]1[C@@H]2[C@@H](O)C[C@@]2(C)[C@H]1CC[C@]2(O)C(=O)CO [Standard, Prednisolone]
Degranulation (% mean +/- SEM) of mast cells, 21st day sacrifice, central zone (no treatment day 14 to 21, 21st day sacrifice, central zone): 29.4 ± 7.2 % | Degranulation (% mean +/- SEM) of mast cells, 21st day sacrifice, peripheral zone (no treatment day 14 to 21, 21st day sacrifice, peripheral zone): 37.51 ± 8.3 % | Degranulation (% mean +/- SEM) of mast cells, 13th day sacrifice, central zone (oral treatment day 5 to 13, 13th day sacrifice, central zone): 8.4 ± 2.0 % | Degranulation (% mean +/- SEM) of mast cells, 13th day sacrifice, peripheral zone (oral treatment day 5 to 13, 13th day sacrifice, peripheral zone): 8.7 ± 1.621 %
